Here are results for 13 compounds from PubChem BioAssay (NCI).

Holding throughout (experiment): NCI tumour cell line growth inhibition, 48 h
Assay [1] deals with NCI-H522 lung.
Assay [2] has as its system LXFL 529 NSCLC.
The subject of assay [3] is HOP-62 NSCLC.
Assay [4] concerns MCF7 breast.
Assay [5] has as its system P388 leukemia.
Assay [6] has as its system SN12K1 renal.
For assay [7], the system named is P388/ADR leukemia.
Assay [8] concerns RXF-631 renal.

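Five concentrations, 48 hours, 96-well plates. At the GI50, growth is halved. The concentration for full growth arrest is given as TGI.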

As to `Cc1ccc(S(=O)(=O)Nc2cccc3c(=O)[nH]cnc23)cc1`, the TGI in assay [1], in assay [2] and in assay [3] was over 100 µM each time.

For the compound `Cc1n(CC(C)C)c2c([n+]1C)C(=O)c1ccccc1C2=O`, the TGI is 0.0386 µM in assay [1], 0.508 µM in assay [2] and 0.76 µM in assay [3].

Turning to `Cc1ccc2c(ccc(/C=C/c3ccc(O)c4ncccc34)[n+]2C)c1`, the TGI in assay [1] stood at 27.1 µM; in assay [2], 19.7 µM; in assay [3], 32.9 µM.

For `COC1OC(CS(=O)(=O)O)C(O)C(O)C1O` (stereo unspecified), the TGI in assay [4] and in assay [3] was over 100 µM in each case.

Take `CC1(C)[C@@H]2CC[C@]1(C)[C@H](OC(=O)CSC#N)C2`: the TGI in assay [1], in assay [4] and in assay [3] was over 100 µM each time.

On to `O=S(=O)(O)c1ccc(N=Nc2ccc3c(S(=O)(=O)O)cccc3c2O)c2ccccc12`, for which the TGI in assay [1], in assay [4] and in assay [3] was over 100 µM each time.

Regarding `N#C[S-].[La+3].c1cnc2c(c1)ccc1cccnc12.c1cnc2c(c1)ccc1cccnc12.c1cnc2c(c1)ccc1cccnc12`, the TGI in assay [1] was 16 µM; in assay [2], 15.3 µM. Moreover, the GI50 in assay [2] is 1.83 µM.

As for `O=C1C=C(C2OC(CO)C(O)C2O)C(=O)N1` (stereo unspecified), the TGI in assay [5] was 60.9 µM; in assay [1], 38.5 µM; in assay [6], over 100 µM; in assay [7], 68.5 µM; in assay [4], over 100 µM; in assay [3] it was over 100 µM.

For the compound `C=C1C(=O)OC2/C=C(\C(=O)O)CC/C=C(\C)CC(OC(=O)/C=C(\C)CC)C12` (stereo unspecified), the TGI stood at 32.8 µM in assay [1], 31.6 µM in assay [2] and 34.5 µM in assay [3].

For `O=C(c1ccccc1)c1ccc2n[se]nc2c1`, the TGI in assay [1], in assay [2] and in assay [8] was over 100 µM in each case.

Regarding `CCCC(C)c1ccc(OCCCCCCN2CCNCC2)cc1` (stereo unspecified), in assay [3], the GI50 was 4.55 µM and the TGI came out at 24.1 µM.

Regarding `OC(CC1CCCCN1)c1ccc2c(c1)oc1ccccc12` (stereo unspecified), the TGI in assay [1], in assay [4] and in assay [3] was over 100 µM in each case.

Turning to `CN(C)/C=C/C(=CC=[N+](C)C)/C=C/N(C)C`, the TGI in assay [1], in assay [2], in assay [8] and in assay [3] was over 100 µM in each case.
